molecular target: 6×HIS-tankyrase 1 (1091-1325) (Homo sapiens (Human), UniProt O95271); assay: biochemical; format: biochemical; conditions: 0.25 nM enzyme, 400 nM NAD, 60 minutes at room temperature; read-out: TNKS1 IP IC50
Sequence (O95271 1091-1325): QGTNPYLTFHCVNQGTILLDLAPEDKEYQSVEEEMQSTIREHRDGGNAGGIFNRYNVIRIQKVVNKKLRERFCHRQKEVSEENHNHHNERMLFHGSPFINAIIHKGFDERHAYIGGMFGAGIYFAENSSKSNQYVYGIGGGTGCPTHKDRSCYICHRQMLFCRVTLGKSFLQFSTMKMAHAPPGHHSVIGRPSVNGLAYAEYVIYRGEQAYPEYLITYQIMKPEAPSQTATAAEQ

Going from `CC1(C)OC(=O)N([C@H]2C[C@H](c3nnc(-c4ccccc4)o3)C2)[C@@H]1c1ccccc1` (single isomer, unassigned) [Example 176] to `CC1(C)OC(=O)N([C@H]2C[C@H](c3nnc(-c4ccccc4)o3)C2)[C@H]1c1ccccc1` (single isomer, unassigned) [Example 177], the IC50 falls from 3.13 µM to 1.02 µM (3.1-fold).

First: CC1(C)OC(=O)N([C@H]2CC[C@H](c3cc4ccncc4[nH]c3=O)CC2)[C@H]1c1ccccc1 [Example 139, (S)-5,5-dimethyl-3-((1r,4s)-4-(2-oxo-1,2-dihydro-1,7-naphthyridin-3-yl)cyclohexyl)-4-phenyloxazolidin-2-one]
Second: CC1(C)OC(=O)N([C@H]2CC[C@H](c3cnc4[nH]ccc4c3)CC2)[C@H]1c1ccccc1 [Example 137, (S)-3-((1r,4s)-4-(1H-pyrrolo[2,3-b]pyridin-5-yl)cyclohexyl)-5,5-dimethyl-4-phenyloxazolidin-2-one]
The IC50 of the first is 19-fold lower: 0.0115 µM for the first, 0.218 µM for the second.

With `CC1(C)OC(=O)N([C@H]2CC[C@@H](c3cnc4[nH]ccc4c3)CC2)[C@H]1c1ccccc1` [Example 136, (S)-3-((1s,4r)-4-(1H-pyrrolo[2,3-b]pyridin-5-yl)cyclohexyl)-5,5-dimethyl-4-phenyloxazolidin-2-one] the IC50 was 0.00517 µM.

same assay, conditions: […] enzyme, 400 nM NAD, 60 minutes at room temperature; read-out: TNKS1 IP IC50

Going from `CC1(C)OC(=O)N([C@H]2CC[C@H](NC(=O)c3ccnc4[nH]ccc34)CC2)[C@H]1c1ccccc1` [Example 152, N-((1S,4r)-4-((S)-5,5-dimethyl-2-oxo-4-phenyloxazolidin-3-yl)cyclohexyl)-1H-pyrrolo[2,3-b]pyridine-4-carboxamide] to `CC1(C)OC(=O)N([C@H]2CC[C@H](NC(=O)c3ccc4cc[nH]c4n3)CC2)[C@H]1c1ccccc1` [Example 147, N-((1S,4r)-4-((S)-5,5-dimethyl-2-oxo-4-phenyloxazolidin-3-yl)cyclohexyl)-1H-pyrrolo[2,3-b]pyridine-6-carboxamide], the IC50 falls from 0.228 µM to 0.0264 µM (8.6-fold).

First: CC1(C)OC(=O)N(C2CC=C(c3cc4ccncc4[nH]c3=O)CC2)[C@H]1c1ccccc1 (stereo partly drawn) [Example 87, (4S)-5,5-dimethyl-3-(4-(2-oxo-1,2-dihydro-1,7-naphthyridin-3-yl)cyclohex-3-en-1-yl)-4-phenyloxazolidin-2-one]
Second: CC1(C)OC(=O)N([C@H]2CC[C@H](c3cnc4cc[nH]c4c3)CC2)[C@H]1c1ccccc1 [Example 171, (S)-3-((1r,4S)-4-(1H-pyrrolo[3,2-b]pyridin-6-yl)cyclohexyl)-5,5-dimethyl-4-phenyloxazolidin-2-one]
The IC50 of the first is 2.7-fold lower: 0.00691 µM for the first, 0.019 µM for the second.

First: CC1(C)OC(=O)N([C@H]2CC[C@H](NC(=O)c3nc4ccccc4[nH]3)CC2)[C@H]1c1ccccc1 [Example 157, N-((1S,4r)-4-((S)-5,5-dimethyl-2-oxo-4-phenyloxazolidin-3-yl)cyclohexyl)-1H-benzo[d]imidazole-2-carboxamide]
Second: Cn1cc2c(C(=O)N[C@H]3CC[C@H](N4C(=O)OC(C)(C)[C@H]4c4ccccc4)CC3)cccc2n1 [Example 144, N-((1R,4r)-4-((R)-5,5-dimethyl-2-oxo-4-phenyloxazolidin-3-yl)cyclohexyl)-2-methyl-2H-indazole-4-carboxamide]
The IC50 of the first is 2.9-fold lower: 0.0768 µM for the first, 0.222 µM for the second. The first is the more potent here.

`CC1(C)OC(=O)N([C@H]2CC[C@H](NC(=O)c3ccc4nccn4c3)CC2)[C@H]1c1ccccc1` [Example 159, N-((1S,4r)-4-((S)-5,5-dimethyl-2-oxo-4-phenyloxazolidin-3-yl)cyclohexyl)imidazo[1,2-a]pyridine-6-carboxamide] and `CC1(C)OC(=O)N([C@H]2CC[C@H](NC(=O)c3ccc4scnc4c3)CC2)[C@H]1c1ccccc1` [Example 150, N-((1S,4r)-4-((S)-5,5-dimethyl-2-oxo-4-phenyloxazolidin-3-yl)cyclohexyl)benzo[d]thiazole-5-carboxamide] are within 1.5-fold of each other in IC50: 1.56 µM for the first, 1.54 µM for the second.

Compared with `C[C@H]1OC(=O)N([C@H]2CC[C@H](n3c(=O)[nH]c4cc(C#N)ccc43)CC2)[C@H]1c1ccccc1` [Example 178, 1-((1R,4s)-4-((4S,5R)-5-methyl-2-oxo-4-phenyloxazolidin-3-yl)cyclohexyl)-2-oxo-2,3-dihydro-1H-benzo[d]imidazole-5-carbonitrile], `C[C@@H]1OC(=O)N([C@H]2CC[C@H](n3c(=O)[nH]c4cc(C#N)ccc43)CC2)C1c1ccccc1` (stereo partly drawn) [Example 179, 1-((1R,4r)-4-((4R,5S)-5-methyl-2-oxo-4-phenyloxazolidin-3-yl)cyclohexyl)-2-oxo-2,3-dihydro-1H-benzo[d]imidazole-5-carbonitrile] is 340-fold higher in IC50: 0.000375 µM for the first, 0.129 µM for the second.

Going from `CC1(C)OC(=O)N([C@H]2CC[C@H](NC(=O)c3csc(Br)n3)CC2)[C@H]1c1ccccc1` [Example 182, 2-bromo-N-((1S,4r)-4-((S)-5,5-dimethyl-2-oxo-4-phenyloxazolidin-3-yl)cyclohexyl)thiazole-4-carboxamide] to `Cc1nc(C(=O)N[C@H]2CC[C@H](N3C(=O)OC(C)(C)[C@@H]3c3ccccc3)CC2)cs1` [Example 166, N-((1S,4r)-4-((S)-5,5-dimethyl-2-oxo-4-phenyloxazolidin-3-yl)cyclohexyl)-2-methylthiazole-4-carboxamide], the IC50 rises from 0.0321 µM to > 46.3 µM. The first is the more potent here.

First: Cn1cc2cccc(C(=O)N[C@H]3CC[C@H](N4C(=O)OC(C)(C)[C@@H]4c4ccccc4)CC3)c2n1 [Example 145, N-((1S,4r)-4-((S)-5,5-dimethyl-2-oxo-4-phenyloxazolidin-3-yl)cyclohexyl)-2-methyl-2H-indazole-7-carboxamide]
Second: Cn1cncc1C(=O)N[C@H]1CC[C@H](N2C(=O)OC(C)(C)[C@@H]2c2ccccc2)CC1 [Example 151, N-((1S,4r)-4-((S)-5,5-dimethyl-2-oxo-4-phenyloxazolidin-3-yl)cyclohexyl)-1-methyl-1H-imidazole-5-carboxamide]
The IC50 of the first is 1200-fold lower: 0.0137 µM for the first, 16.6 µM for the second.

Going from `CC(C)c1cc(C(=O)N[C@H]2CC[C@H](N3C(=O)OC(C)(C)[C@@H]3c3ccccc3)CC2)[nH]n1` [Example 154, N-((1S,4r)-4-((S)-5,5-dimethyl-2-oxo-4-phenyloxazolidin-3-yl)cyclohexyl)-3-isopropyl-1H-pyrazole-5-carboxamide] to `CC1(C)OC(=O)N([C@H]2CC[C@H](NC(=O)c3csc(-c4ncccn4)n3)CC2)[C@H]1c1ccccc1` [Example 183, N-((1S,4r)-4-((S)-5,5-dimethyl-2-oxo-4-phenyloxazolidin-3-yl)cyclohexyl)-2-(pyrimidin-2-yl)thiazole-4-carboxamide], the IC50 falls from 2.32 µM to 0.00394 µM (590-fold).

First: CC1(C)OC(=O)N(c2ccc(C(=O)Nc3cnccc3O)cc2)[C@H]1c1ccccc1 [Example 21, (S)-4-(5,5-dimethyl-2-oxo-4-phenyloxazolidin-3-yl)-N-(4-hydroxypyridin-3-yl)benzamide]
Second: CC1(C)OC(=O)N([C@H]2CC[C@H](NC(=O)c3cnn(-c4ccccc4)c3)CC2)[C@H]1c1ccccc1 [Example 161, N-((1S,4r)-4-((S)-5,5-dimethyl-2-oxo-4-phenyloxazolidin-3-yl)cyclohexyl)-1-phenyl-1H-pyrazole-4-carboxamide]
The IC50 of the first is 3.8-fold higher: 1.34 µM for the first, 0.35 µM for the second.

With `CC1(C)OC(=O)N([C@H]2CC[C@H](NC(=O)c3csc(-c4ccncc4)n3)CC2)[C@H]1c1ccccc1` [Example 167, N-((1S,4r)-4-((S)-5,5-dimethyl-2-oxo-4-phenyloxazolidin-3-yl)cyclohexyl)-2-(pyridin-4-yl)thiazole-4-carboxamide] the IC50 was > 46.3 µM.
